Measured values from patent US20190060308A1, “PHARMACEUTICAL COMPOSITION COMPRISING AN OMEGA-3 FATTY ACID AND A HYDROXY-DERIVATIVE OF A STATIN AND METHODS OF USING SAME” (Amarin Pharmaceuticals Ireland Limited, priority 2012, published 2019).

Legend:
[1] = system: human umbilical vein endothelial cells (HUVECs); assay: NO and ONOO^− release from HUVECs exposed to oxLDL, tandem electrochemical nanosensors (Example 3); type: cell-based; conditions: for increase in NO/ONOO^− ratio: versus treatment with oxLDL and vehicle only, statin 1.0 μM
Protocol: An experiment was conducted to test the effects of EPA with rosuvastatin, atorvastatin or o-hydroxyatorvastatin (an active hydroxyl metabolite, “ATM”) on nitric oxide (NO) and peroxynitrite (ONOO^−) release by human umbilical vein epithelial cells (“HUVECs”) following stimulation with oxidized LDL. Nitric oxide bioavailability, peroxynitrite bioavailability, and the ratio of bioavailable nitric oxide to bioavailable peroxynitrite (NO/ONOO^−) serve as useful indicators of endothelial cell function. In particular, the NO/ONOO^− ratio can serve as an indicator of normal epithelial cell function.
Human umbilical vein endothelial cells (HUVECs) were isolated into primary cultures from female donors by Clonetics (San Diego, Calif.) and purchased as proliferating cells. All cell culture donors were healthy, with no pregnancy or prenatal complications. […] The confluent cells (4 to 5×10^5 cells/35 mm dish) were placed with minimum essential medium containing 3 mM L-arginine and 0.1 mM BH4 [(6R)-5,6,7,8-tetrahydrobiopterin]. Before experimental use, the cells (from second or third passage) were rinsed twice with Tyrode-HEPES buffer with 1.8 mM CaCl2).
The effects of EPA treatment were tested in the absence and presence of statins in HUVECs following exposure to oxidized LDL (oxLDL). The oxLDL causes eNOS uncoupling and endothelial dysfunction to reproduced disease-like conditions. Venous blood from healthy normolipidemic volunteers was collected into Na-EDTA (1 mg/mL blood) vacuum tubes after a 12-hour fast. Plasma was immediately separated by centrifugation at 3,000 g for 10 minutes at 4° C. […] The purified LDL was dialyzed for 96 hours against PBS containing 0.3 mM EDTA at 4° C., then stored at 4° C.
A sample of LDL was dialyzed against Tris/NaCl Buffer (50 mM Tris in 0.15 M NaCl, pH 8.0) to remove the EDTA. Tris-NaCl buffer was added to the dialyzed n-LDL to adjust the protein concentration to 30 mg/mL. A 1-mL aliquot of 20 μM CuSO4 was added to 1 mL of dialyzed normal LDL. Oxidation at 37° C. was followed spectrophotometrically (234 nm) over a period of 24 hours until oxidation was complete. The oxLDL was then dialyzed at 4° C. with 4 L of Tris buffer, filtered with a 0.22 μm filter, and stored under nitrogen at 4° C.
Oxidation was monitored by the use of measurements of TBARS. Briefly, LDL was incubated with thiobarbituric acid (0.5 wt/vol, in H2SO4, 50 mM) for 30 minutes at 100° C. […] TBARS concentration was determined as malondialdehyde (MDA) equivalents with the use of an MDA standard curve.
Concurrent measurements of NO and ONOO^− were performed with tandem electrochemical nanosensors combined into one working unit with a total diameter of 200-400 nm. Their design was based on previously developed and chemically modified carbon-fiber technology. Each of the nanosensors was made by depositing a sensing material on the tip of a carbon fiber (length 4 to 5 μm, diameter 100-200 nm). The fibers were sealed with nonconductive epoxy and electrically connected to copper wires with conductive silver epoxy. Conductive films of polymeric Ni(II) tetrakis (3-methoxy-4-hydroxyphenyl) porphyrin and Mn(III) [2.2] paracyclophanylporphyrin were used for the NO and ONOO^− sensors, respectively.
The amperometric method (with a response time of 0.1 ms) provides a quantitative signal (current) that is directly proportional to changes (from basal levels) in NO or ONOO^− concentration. Amperometric measurements were performed with a Gamry III double-channel potentiostat. Basal NO or ONOO^− levels were measured by differential pulse voltammetry in separate experiments.
All measurements of NO and ONOO^− were performed on intact endothelial cells. The NO/ONOO^− nanosensor module was positioned 5±2 μm from the surface of each individual endothelial cell using a computer-controlled M3301 micromanipulator (x-y-z resolution of 0.2 μm) and microscope (both from World Precision Instruments, Berlin, Germany) fitted with a CD camera.

[2] = system: human umbilical vein epithelial cells (HUVECs); assay: NO and ONOO^− release by HUVECs following stimulation with oxidized LDL (Example 2); type: cell-based; conditions: calcium ionophore 1.0 μM, oxLDL 10 mg/dL, EPA 10.0 μM, rosuvastatin or ATM 1.0 μM
Protocol: An experiment was conducted to test the effects of EPA with rosuvastatin or atorvastatin active o-hydroxyl metabolite (“ortho-hydroxy atorvastatin” or “ATM”) on nitric oxide (NO) and peroxynitrite (ONOO^−) release by human umbilical vein epithelial cells (“HUVECs”) following stimulation with oxidized LDL. Nitric oxide bioavailability, peroxynitrite bioavailability, and the ratio of bioavailable nitric oxide to bioavailable peroxynitrite (NO/ONOO^−) serve as useful indicators of endothelial cell function. In particular, the NO/ONOO^− ratio can serve as an indicator of normal epithelial cell function.
In this experiment, HUVECs were equipped with prophyrinic nanosensors and then treated with calcium ionophore (1.0 μM). The HUVECs were then exposed to a solution of oxidized LDL (10 mg/dL).
HUVECs exposed to oxLDL were then treated with EPA alone (10.0 μM), a combination of EPA (10.0 μM) and rosuvastatin (1.0 μM), or a combination of EPA (10.0 μM) and ATM (1.0 μM).

[3] = HUVECs exposed to oxLDL, EPA 10 μM
[4] = compared to treatment with oxLDL and vehicle only, EPA 10 μM

Compound | increase in NO/ONOO^− ratio ([1]; EPA 10 μM) [%] | NO [2] [nM] | NO/ONOO^− [2] | ONOO^− [2] [nM] | NO release [1, 3] [nM] | ONOO^− release [1, 3] [nM] | increase in NO release [1, 4] [%] | reduction of ONOO^− release [1, 4] [%] | increase in NO/ONOO^− ratio (in words) ([1]; HUVECs exposed to oxLDL, VAS2870 alone or with EPA and statin)
CC(C)c1c(C(=O)Nc2ccccc2O)c(-c2ccccc2)c(-c2ccc(F)cc2)n1CC[C@@H](O)C[C@@H](O)CC(=O)O [ATM, o-hydroxyatorvastatin] | 33 | 199 ± 20 | 0.8 | 236 ± 35 | – | – | – | – | –
CC/C=C\C/C=C\C/C=C\C/C=C\C/C=C\CCCC(=O)O [EPA, eicosapentaenoic acid] | 41 | 208 ± 32 | 1.0 | 203 ± 21 | 208 ± 32 | 203 ± 21 | 18 | 16 | –
c1ccc(Cn2nnc3c(Sc4nc5ccccc5o4)ncnc32)cc1 [VAS2870] | – | – | – | – | – | – | – | – | two-fold
CC(C)c1c(C(=O)Nc2ccccc2)c(-c2ccccc2)c(-c2ccc(F)cc2)n1CC[C@@H](O)C[C@@H](O)CC(=O)O [atorvastatin] | 84 | – | – | – | – | – | – | – | –
CC(C)c1nc(N(C)S(C)(=O)=O)nc(-c2ccc(F)cc2)c1/C=C/[C@@H](O)C[C@@H](O)CC(=O)O [rosuvastatin] | 21 | 191 ± 33 | 0.8 | 252 ± 39 | – | – | – | – | –
